The record followed here is patent publication US8895559B2, “Quinoxalines derivatives and pharmaceutical compositions and kits” (Merck Patent GmbH, priority 2010, dated 2014).

A word on the pIC50: it is the IC50 on a negative log10 scale, so that one unit is a factor of ten. The low end stands for a large IC50, the high end for a small IC50.

pIC50: −log10 of the molar value.

One assay relates to PI3K. In words: Cellular testing of PI3K inhibitors: P-S473-PKB Luminex assay in PC3 cells. It is filed as cell-based. As to conditions: PI3K-dependent phosphorylation of PKB at Serin 473 in PC3 cells. The method, then:
Description of the Method for the Cellular Testing of PI3K Inhibitors
The cellular assay for determination of the P-S473-PKB level is carried out as a Luminex assay in 96-well format in PC3 cells.
PC3 cells are sown out with 20,000 cells per well in 100 μl medium (45% RPMI1460/45% Ham's F12/10% FCS) and incubated on the following day for 30 min with a serial dilution of the test substance (7 concentrations) under serum-free conditions. […] The lysates are incubated overnight at 4° C. with shaking with Luminex beads to which an anti-total PKB antibody is coupled. The detection is carried out on the following day by addition of a P-S473-PKB antibody and a species-specific PE-labelled secondary antibody. The detection of P-S473-PKB is carried out by measurement in a Luminex 100 instrument by determination of 100 events per cavity in a measurement time of 60 sec. […] The values of the preparations treated with test substance are calculated from this as percent of control, and IC50 values are determined by means of RS1.
The molecule `COc1cc(Nc2nc3ccccc3nc2NS(C)(=O)=O)c(OCCC(C)O)c(OC)c1` (stereo not drawn) [drawing 155] gave a pIC50 of 7.42.

`COc1ccc(CCCO)c(Nc2nc3ccccc3nc2NS(=O)(=O)c2cn(C)c(CN(C)C)n2)c1` [reference compound] had a pIC50 of 5.96.

For `COc1ccc(CCO)c(Nc2nc3ccccc3nc2NS(=O)(=O)c2ccc(F)cc2)c1` [reference compound], the pIC50 is 6.54. Against the preceding molecule, the pIC50 is 0.58 log units higher.

The molecule `COc1cc(Nc2nc3ccccc3nc2NS(=O)(=O)c2cn(C)cn2)c(OCCCO)c(OC)c1` [drawing 163] had a pIC50 of 7.02.

In turn, `COc1cc(Nc2nc3ccccc3nc2NS(=O)(=O)c2cn(C)cn2)cc(OC)c1` [reference compound] gave a pIC50 of 6.01.

`COc1cc(Nc2nc3ccccc3nc2NS(=O)(=O)C2CCS(=O)(=O)C2)c(OCCCO)c(OC)c1` (stereo not drawn) [drawing 157]: the pIC50 is 7.28. Compared with the last molecule, the pIC50 is 1.27 log units higher.

With `COc1cc(Nc2nc3ccccc3nc2NS(=O)(=O)c2ccc(F)cc2)c(OCCOCCO)c(OC)c1` [drawing 159], the pIC50 was 8.85. This pIC50 lies 1.57 log units higher than the previous one.

The assay is the same for the next values; noted with them: PI3 kinase inhibition, cell.
`COc1cc(Nc2nc3ccccc3nc2NS(=O)(=O)c2ccc(F)c(F)c2)c(OCCCO)c(OC)c1` [Compound A71] gave a pIC50 of 7.00 to 9.00.

Molecule `COc1cc(Nc2nc3ccccc3nc2NS(=O)(=O)c2cccc(C(=O)N(C)C)c2)c(OCCCO)c(OC)c1` [Compound A97] had a pIC50 of 5.00 to 7.00.

As to `COc1cc(Nc2nc3ccccc3nc2NS(=O)(=O)c2cccnc2)c(OCCCO)c(OC)c1` [Compound A79], the pIC50 is 5.00 to 7.00.

Consider `COc1cc(Nc2nc3ccccc3nc2NS(=O)(=O)c2cnn(C(F)F)c2)c(OCCC(C)O)c(OC)c1` (stereo not drawn) [Compound A103], for which the pIC50 was 7.00 to 9.00.

Molecule `COc1cc(Nc2nc3ccccc3nc2NS(=O)(=O)c2cn(C)cn2)c(OCCOCCO)c(OC)c1` [Compound A81] had a pIC50 of 5.00 to 7.00.

As for `COc1cc(Nc2nc3ccccc3nc2NS(=O)(=O)c2cccnc2)c(OCCN(C)CCO)c(OC)c1` [Compound A68], the pIC50 was 5.00 to 7.00.

The molecule `COc1cc(Nc2nc3ccccc3nc2NS(=O)(=O)c2ccn(C(F)(F)C(=O)N(C)C)n2)c(OCCC(C)O)c(OC)c1` (stereo not drawn) [Compound A118, 2,2-difluoro-2-(3-{3-[2-(3-hydroxybutoxy)-3,5-dimethoxy-phenylamino]-quinoxalin-2-ylsulfamoyl}pyrazol-1-yl)-N,N-dimethylacetamide] gave a pIC50 of 5.00 to 7.00.

Regarding `COc1cc(Nc2nc3ccccc3nc2NS(=O)(=O)c2ccc(C#N)cc2)c(OCC(O)CO)c(OC)c1` (stereo not drawn) [Compound A74], the pIC50 was 7.00 to 9.00.

For `COc1cc(Nc2nc3ccccc3nc2NS(=O)(=O)c2cn(C)cn2)c(OCCS(C)(=O)=O)c(OC)c1` [Compound A55], the negative logarithm of the IC50 (pIC50) is 7.00 to 9.00.

Consider `COc1cc(Nc2nc3ccccc3nc2NS(=O)(=O)c2ccn(CC(=O)N(C)C)n2)c(OC)c(OC)c1` [Compound A131], for which the negative logarithm of the IC50 (pIC50) is 7.00 to 9.00.

Molecule `COc1cc(Nc2nc3ccccc3nc2NS(=O)(=O)CCCS(C)(=O)=O)c(OCCCO)c(OC)c1` [Compound A36] had a pIC50 of 7.00 to 9.00.

Molecule `COc1cc(Nc2nc3ccccc3nc2NS(=O)(=O)c2ccc(C#N)cc2)c(OCCOCCO)c(OC)c1` [Compound A80] had a pIC50 of 7.00 to 9.00.

As for `COc1cc(Nc2nc3ccccc3nc2NS(=O)(=O)c2ccc(C(=O)NCC(F)F)cc2)c(OCCCO)c(OC)c1` [Compound A93], the negative-log IC50 (pIC50) was 5.00 to 7.00.

As for `COc1cc(Nc2nc3ccccc3nc2NS(=O)(=O)CCC#N)c(OCCCO)c(OC)c1` [Compound A96], the pIC50 was 5.00 to 7.00.

For `COc1cc(Nc2nc3ccccc3nc2NS(=O)(=O)c2ccc(C(=O)N(C)C)cc2)c2occc2c1` [Compound A15], the negative-log IC50 (pIC50) was under 5.00.

Take `COc1cc(Nc2nc3ccccc3nc2NS(=O)(=O)c2ccn(CC(=O)N(C)C)n2)c(OCCC(C)O)c(OC)c1` (stereo not drawn) [Compound A120]: the pIC50 was 7.00 to 9.00.

`CCc1cc(OC)cc(Nc2nc3ccccc3nc2NS(=O)(=O)c2cn(C)cn2)c1OC` [Compound A17] gave a pIC50 of under 5.00.

Turning to `COc1cc(Nc2nc3ccccc3nc2NS(=O)(=O)c2ccccc2)c(OCCCO)c(OC)c1` [Compound A30], the pIC50 was 7.00 to 9.00.

Regarding `COc1cc(Nc2nc3ccccc3nc2NS(=O)(=O)c2ccc(NC(C)=O)cc2)c(OCCOCCO)c(OC)c1` [Compound A62], the pIC50 was 5.00 to 7.00.

Regarding `COc1cc(Nc2nc3ccccc3nc2NS(=O)(=O)c2cnn(CC(=O)N(C)C)c2)c(OCCCO)c(OC)c1` [Compound A27], the pIC50 was 5.00 to 7.00.

`COc1cc(Nc2nc3ccccc3nc2NS(=O)(=O)c2ccc(C#N)cc2)c(OCCN(C)CCO)c(OC)c1` [Compound A78] had a negative-log IC50 (pIC50) of 7.00 to 9.00.

In turn, `CCc1cc(OC)cc(Nc2nc3ccccc3nc2NS(=O)(=O)c2ccc(C(=O)N(C)C)cc2)c1OC` [Compound A18] showed a pIC50 of under 5.00.

The molecule `COc1cc(Nc2nc3ccccc3nc2NS(=O)(=O)c2ccc(C#N)cc2)c(OCCC(C)O)c(OC)c1` (stereo not drawn) [Compound A45] gave a pIC50 of 7.00 to 9.00.

The molecule `COc1cc(Nc2nc3ccccc3nc2NS(=O)(=O)c2ccn(C)n2)c(OC)c(OC)c1` [Compound A121] had a pIC50 of 7.00 to 9.00.

As to `COc1cc(Nc2nc3ccccc3nc2NS(=O)(=O)c2cccs2)c(OCCN(C)CCO)c(OC)c1` [Compound A60], the pIC50 was 7.00 to 9.00.

As to `COc1cc(Nc2nc3ccccc3nc2NS(=O)(=O)c2cnn(C(F)F)c2)c(OCCCO)c(OC)c1` [Compound A29], the pIC50 was 7.00 to 9.00.

`COc1cc(Nc2nc3ccccc3nc2NS(=O)(=O)c2ccc(C(=O)N(C)C)cc2)c(OCCOCCO)c(OC)c1` [Compound A69] had a pIC50 of 5.00 to 7.00.

With `COc1cc(Nc2nc3ccccc3nc2NS(=O)(=O)c2cccs2)c(OCCOCCO)c(OC)c1` [Compound A64], the pIC50 is 7.00 to 9.00.

Consider `CCc1c(Nc2nc3ccccc3nc2NS(=O)(=O)c2cn(C)cn2)cc(OC)cc1OC` [Compound A14], for which the pIC50 is 5.00 to 7.00.

Turning to `COc1cc(Nc2nc3ccccc3nc2NS(=O)(=O)c2ccc(CN)cc2)c(OCCCO)c(OC)c1` [Compound A106, 4-aminomethyl-N-{3-[2-(3-hydroxypropoxy)-3,5-dimethoxy-phenylamino]-quinoxalin-2-yl}benzenesulfonamide], the pIC50 is 7.00 to 9.00.

In turn, `COc1cc(Nc2nc3ccccc3nc2NS(=O)(=O)c2cn(C)cn2)c2c(c1)OCC(CO)O2` (stereo not drawn) [Compound A127] gave a pIC50 of 5.00 to 7.00.

`COc1cc(Nc2nc3ccccc3nc2NS(=O)(=O)c2cn(C)cn2)c2oc(C(=O)N(C)C)cc2c1` [Compound A9] showed a pIC50 of 5.00 to 7.00.

Take `COc1cc(Nc2nc3ccccc3nc2NS(=O)(=O)c2cccc(CN3CCC3)c2)c(OCCCO)c(OC)c1` [Compound A116, 3-Azetidin-1-ylmethyl-N-{3-[2-(3-hydroxypropoxy)-3,5-dimethoxyphenylamino]-quinoxalin-2-yl}-benzenesulfonamide]: the pIC50 was 7.00 to 9.00.

Regarding `COc1cc(Nc2nc3ccccc3nc2NS(=O)(=O)C(F)F)c(OCCC(C)O)c(OC)c1` (stereo not drawn) [Compound A115], the pIC50 was 7.00 to 9.00.

In turn, `COc1cc(Nc2nc3ccccc3nc2NS(=O)(=O)c2cn(C)c(CN(C)C)n2)c(OCCCO)c(OC)c1` [Compound A33] had a pIC50 of 5.00 to 7.00.

Turning to `COc1cc(Nc2nc3ccccc3nc2NS(=O)(=O)c2cn(C)cn2)c2c(c1)OCCO2` [Compound A10], the pIC50 is 5.00 to 7.00.

Molecule `COc1cc(Nc2nc3ccccc3nc2NS(=O)(=O)c2cn(C)cn2)c(OCCCO)c(OC)c1` [Compound A86] showed a pIC50 of 7.00 to 9.00.

For `CCN(CC)Cc1nc(S(=O)(=O)Nc2nc3ccccc3nc2Nc2cc(OC)cc(OC)c2OCCC(C)O)cn1C` (stereo not drawn) [Compound A123], the pIC50 is 5.00 to 7.00.

Regarding `COc1cc(Nc2nc3ccccc3nc2NS(=O)(=O)c2cn(C)c(CN(C)C)n2)c(OCCCCO)c(OC)c1` [Compound A113], the pIC50 is 5.00 to 7.00.

The molecule `COCCOCCOc1c(Nc2nc3ccccc3nc2NS(=O)(=O)c2cn(C)cn2)cc(OC)cc1OC` [Compound A47] had a pIC50 of 7.00 to 9.00.

On to `COc1cc(Nc2nc3ccccc3nc2NS(=O)(=O)c2cccc(C(=O)N3CCC3)c2)c(OCCCO)c(OC)c1` [Compound A108], for which the pIC50 is 5.00 to 7.00.

In the case of `COc1cc(Nc2nc3ccccc3nc2NS(=O)(=O)c2ccc(C#N)cc2)c(OCCS(=O)(=O)CCO)c(OC)c1` [Compound A76], the pIC50 was 7.00 to 9.00.

Molecule `COc1cc(Nc2nc3ccccc3nc2NS(=O)(=O)c2ccc(F)c(F)c2)c(OCCOCCO)c(OC)c1` [Compound A73] gave a negative-log IC50 (pIC50) of 5.00 to 7.00.

Take `COc1cc(Nc2nc3ccccc3nc2NS(=O)(=O)c2ccc(F)cc2)c(OCCOCCO)c(OC)c1` [Compound A53]: the pIC50 is 7.00 to 9.00.

Molecule `COc1cc(Nc2nc3ccccc3nc2NS(=O)(=O)c2ccc(C#N)cc2)c(OC)c(OC)c1` [Compound A91] gave a pIC50 of 7.00 to 9.00.

`COc1cc(Nc2nc3ccccc3nc2NS(=O)(=O)c2ccn(C)n2)c(OCCC(C)O)c(OC)c1` (stereo not drawn) [Compound A100] had a pIC50 of 7.00 to 9.00.

In turn, `COc1cc(Nc2nc3ccccc3nc2NS(=O)(=O)c2ccc(C#N)cc2)c(OCC[S+]([O-])CCO)c(OC)c1` (stereo not drawn) [Compound A72] showed a pIC50 of 7.00 to 9.00.

As to `COc1cc(Nc2nc3ccccc3nc2NS(=O)(=O)c2cncs2)c(OCCCO)c(OC)c1` [Compound A22], the pIC50 was 7.00 to 9.00.

Molecule `COc1cc(Nc2nc3ccccc3nc2NS(=O)(=O)c2cn(C)c(CN(C)C)n2)c(CCCCO)c(OC)c1` [Compound A94] had a pIC50 of 5.00 to 7.00.

For the molecule `COc1cc(Nc2nc3ccccc3nc2NS(=O)(=O)N(C)C)c(OCCCO)c(OC)c1` [Compound A104], the pIC50 was 7.00 to 9.00.
